Assay results from patent publication US6313090A, “Methods for treating parasitic infection using thiopeptides” (The United States of America as represented by the …, priority 2000, dated 2001).

Experiments:
[1] = test system: P. falciparum total protein synthesis; assay: Assay of inhibition of protein synthesis, [3H]leucine incorporation; type: cell-based
Description: Assay of Inhibition of Protein Synthesis. Assay for inhibition of protein synthesis was similar to above except the culture and drug dilutions were in RPMI-1640 without leucine (Select-Amine, Life Technologies) and the sera was extensively dialyzed as described (21). Also, the cultures were adjusted to 1% parasitemia prior to the experiment. Microtitre plates were set up with drug dilutions as described above except cultures were incubated with drug for only 4 hours. [3,4,5-^3 H]-Leucine (Moravek Biochemicals, 122 Ci/mmol, 0.5 mCi/ml, 100 μCi) was diluted to 4 ml in RPMI without leucine. The radiolabeled leucine (20 μl, […]) was added to each well and the plates were further incubated for four hours. The microtitre plates were processed as above to quantitate the incorporated radiolabel.
Assay of inhibition. The effect of thiostrepton on growth and protein synthesis of P. falciparum was compared to anisomycin, since the effect of both of these drugs is on protein synthesis. To assay the effect of thiostrepton and anisomycin on the growth of P. faciparum, inhibition of the uptake and incorporation of [^3 H]hypoxanthine was quantitated at serial dilutions of the drugs on an in vitro culture of P. falciparum. […] Inhibition of the incorporation of [^3 H]leucine was also tested at the same dilutions of the drugs. […]

[2] = test system: P. falciparum (strain 3D7); assay: Assay of growth inhibition, [3H]hypoxanthine incorporation; type: cell-based
Description: (§1) Assay of Growth inhibition. Thiostrepton (1525 u/mg; Calbiochem) and anisomycin (Sigma) were dissolved at 100 mM in DMSO (Pierce). P. falciparum (strain 3D7) (44) was maintained in culture with human erythrocytes (5% hematocrit) in RPMI-1640 (Life Technologies) supplemented with HEPES and sodium bicarbonate and human sera (10%) under standard conditions (18,19). The growth inhibition assay was conducted as described (20). Briefly, the parasitemia was adjusted to 0.1% parasitemia, 2.5% hematocrit and 200 μl aliquots placed in wells of a microtitre dish. Serial dilutions of drugs were made in RPMI. Thiostrepton was diluted to 10 mM in DMSO before the serial dilutions in RPMI. Aliquots (20 μl) were added in triplicate to the cultures in the microtitre plate, mixing well. At the highest concentrations (final 0.2mM), thiostrepton precipitates. After incubation for 48 hours under standard conditions, [2,8-^3 H]-hypoxanthine Moravek Biochemicals, 12.5 Ci/mmol) in RPMI (20 μl, 0.05 mCi/ml) was added to each well. After incubation for a further 24 hours, the cultures were lysed and incorporated radioactivity was measured with an automated counter.
Assay of inhibition. The effect of thiostrepton on growth and protein synthesis of P. falciparum was compared to anisomycin, since the effect of both of these drugs is on protein synthesis. To assay the effect of thiostrepton and anisomycin on the growth of P. faciparum, inhibition of the uptake and incorporation of [^3 H]hypoxanthine was quantitated at serial dilutions of the drugs on an in vitro culture of P. falciparum. […] Inhibition of the incorporation of [^3 H]leucine was also tested at the same dilutions of the drugs. For anisomycin, total protein synthesis was inhibited 50% at the IC50 (0.511 μM) for inhibition of growth, with the concentration-response almost superimposable on that of protein synthesis. […] This would occur if organelle protein synthesis was the target of inhibition (29,30).

[3] = test system: rpoB/C mRNA encoded by the 35-kb plastid-like organelle genome; type: cell-based, P. falciparum
Description: As of organelle and cyloplasmic transcript levels. RNA polymerase transcript levels were assessed by comparing the amounts of RNA synthesized at timepoints following drug treatment. Cultures of P. falciparum (3.2% parasitemia, 5% hematocrit) were treated with thiostrepton at 8 μM and rifampin (Sigma) at 80 μM; near the IC99 values (this study and ref. 22). Aliquots (5 ml) of treated and control cultures were removed and immediately processed for RNA with a guanidinium thiocyanate solution, according to the manufacturer's directions (RNAgents, Promega). All RNA samples were dissolved in 50 μl DEPC-treated water, DNase I treated as previously described (23) and an aliquot (1 μl) was removed for RT-PCR First strand synthesis of cDNA was completed with a random hexamer (Superscript Preamplification System, Life Technologies). One-tenth of the CDNA product was utilized for PCR of rpoB/C, MSA1, and rRNA. Primers corresponding to the 3' region of rpoB, 5'-GGGCTTTAGAAGCTTTTGG-3' (SEQ ID NO:1), and the 5' region of rpoC, 5'-[…]-3' (SEQ ID NO:2) were applied as described (2,3) for PCR of nascent rpoB/C transcripts. Reactions were cycled with the following parameters: 94° C./30 seconds, 42° C./30 seconds, 72° C./60 seconds, 35 cycles. Primers for amplification of nucleotide 64 to 614 of MSA1 with 5'-GTGTGATAATATTCATGG-3' (SEQ ID NO:3) and 5'-GGAGAGCATTTGGTG-3' (SEQ ID NO:4)(24) and the small subunit rRNA with oligonucleotides 841 and 844 (23) were used for amplification reactions following the parameters in the respective references except with 35 cycles. Samples were also analyzed after 25 cycles of amplification to ensure detection in the linear range of the amplification reaction, with similar results. Following electrophoresis of aliquots from the amplification reactions on 1% agarose:TBE gels, samples were transferred to nylon membranes (GeneScreen Plus, DuPont) and hybridized as described (25). The amplification products were probed with 5'-^32 P-labeled oligonucleotides. The rpoB/C products were probed with 5'-[…]-3' (SEQ ID NO:5) (nucleotide 2009-2030 of rpoB) and 5'-CGGAGAGGTATTAATACC-3' (SEQ ED NO:6) (nucleotide 108-125 of rpoC), in 5×SSC, 10 mM sodium phosphate, 0.05% sodium pyrophosphate, 1% sodium dodecyl sulfate, 5×Denhardt's solution, 100 μg/ml yeast tRNA, 42° C. and washed in the hybridization solution lacking Denhardt's and tRNA at 37° C., three times. The final wash was 1×SSC, 0.5% sodium dodecyl sulfate, 42° C. followed by autoradiography. The same results were obtained with either probe. The MSA1 amplification products were similarly probed with 5'-[…]-3' (SEQ ID NO:7) and the rRNA products with oligonucleotide 842 (23).
The target of inhibition by thiostrepton. […]

[4] = Precipitation seen in culture medium of the growth assay; type: physicochemical; conditions: highest concentrations (final 0.2mM) in culture
Description: as §1

Q: Which “inhibition of total protein synthesis” value ([1]; at the IC50 for growth) does the source give for `C=C(NC(=O)C(=C)NC(=O)c1csc(C2=N[C@@H]3c4csc(n4)[C@H]4NC(=O)c5csc(n5)[C@H]([C@](C)(O)[C@@H](C)O)NC(=O)[C@H]5CSC(=N5)/C(=C/C)NC(=O)[C@H]([C@@H](C)O)NC(=O)c5csc(n5)[C@]3(CC2)NC(=O)[C@H](C)NC(=O)C(=C)NC(=O)[C@H](C)NC(=O)[C@H]([C@@H](C)CC)N[C@@H]2C=Cc3c([C@H](C)O)cc(nc3[C@H]2O)C(=O)O[C@@H]4C)n1)C(N)=O` [Thiostrepton, thiostrepton] here?
A: only a negligible amount of inhibition

Q: What about the “concentration required for almost complete inhibition of total protein synthesis” value ([1]; relative to the IC50 for growth) of the same compound?
A: More than ten-fold higher concentrations than the IC50

Q: And the IC50 ([2]; Plasmodium falciparum, 3D7, in vitro culture, [3H]hypoxanthine uptake and incorporation)?
A: 1800 nM

Q: What about the “IC99 (near)” value ([2]; concentration used, near the IC99 value, this study) of the same compound?
A: ~8 µM

Q: And the “decay of mRNA corresponding to rpoB/C, time of drug treatment” value ([3]; thiostrepton at 8 μM, rifampin at 80 μM)?
A: ≤ 6 h

Q: What about the “decline of the rpoB/C product with time” value ([3]; time course, 8 μM) of the same compound?
A: notable affect after only one hour of treatment

Q: What about the “effect on levels of nuclear-encoded MSA mRNA and total rRNA” value ([3]; within the duration of the experiment (8 hours), 8 μM) of the same compound?
A: no effect

Q: And the precipitation [4]?
A: precipitates
